Test results reported in US20240018119A1, “CARBOXAMIDE DERIVATIVE AND PHARMACEUTICAL COMPOSITION COMPRISING SAME AS ACTIVE INGREDIENT FOR PREVENTING OR TREATING MENTAL ILLNESS” (DAEGU-GYEONGBUK MEDICAL INNOVATION FOUNDATION, priority 2020, published 2024).

Legend:
male ICR mice [1] = assay: Hyperactivity inhibitory effect, open field test (EthoVision) in MK801-treated mice; type: in vivo; details: for movement duration: vehicle about 880 s; for distance moved: vehicle about 7000 cm
Experimental: In order to evaluate the hyperactivity inhibitory effect of the compounds of Example 35 and Example 66 according to the present invention or Comparative Example 1, an experiment was performed as follows, and the results are shown in FIG. 1. An open field test is an experimental method utilized for searching for excess and decline in motor function, calmness, excitement, avoidance degree and toxicity.
The observation of the hyperactivity and behavior analysis of animals were conducted using an EthoVisiorn System (Noldus IT b.v., Netherlands) that is a type of an open field test. The animals used for the experiment were male ICR mice of 4 weeks old. To induce hyperactivity, animal models intraperitoneally administered with 0.15 mg/kg of MK801 (drug name: dizocilpine) were used, and the compounds of Example 35, example 66 or Comparative Example 1 was intraperitoneally administered by 5 mg/kg, 30 minutes ago the administration of MK801. Male ICP mice administered with 10% DMSO and 10% Tween-80 as the solvents dissolving a drug were considered a vehicle, and male ICR mice administered with MK801 […] with the Example Compound or Comparative Compound were considered a positive control. After that, in the center of a test box (40×40×30 cm) manufactured using black acryl, the mice under test were put and allowed to fit for 15 minutes, and behavior patterns were observed, recorded and analyzed for 15 minutes. Comparative analysis was conducted by measuring distance moved and movement duration.

male ICR mice [2] = assay: Evaluation on causing sleep disorder, pentobarbital sodium-induced sleep in mice; type: in vivo; details: then pentobarbital sodium 42 mg/kg i.p.; for sleep onset time: vehicle about 225 seconds; for sleep duration: vehicle about 2100 seconds
Experimental: In order to evaluate the causing of sleep disorder or not as the side effect of the compound of Example 35, Example 66 according to the present invention or Comparative Example 1, an experiment was performed as follows, and the results are shown in FIG. 2. Pentobarbital sodium is a drug inducing sleep, and by observing the behavior of sleep-induced animals using the drug, the causing of sleep disorder or not can be evaluated. In addition, caffeine is well-known as a drug causing sleep disorder, and diazepam is well-known as a sleeping pill having sleep retention effect.
As experimental animals, male ICR mice of 3 weeks old were prepared and, 8 mice per group were prepared. A vehicle taking only water, groups intraperitoneally administered once a day for 5 days with 10 mg/kg of caffeine, 2 mg/kg of diazepam, 10 mg/kg of Comparative Example 1, and 10 mg/kg of Example 35 and 10 mg/kg of Example 66, were prepared. […], 42 mg/kg of pentobarbital sodium was intraperitoneally administered to the mice of each group to Induce sleep.
After treatment with pentobarbital sodium, if a mouse was turned upside down showing Its belly, it was considered sleep, and if a mouse changed posture while showing its back, it was considered to wake up completely. Sleep onset time and sleep duration were confirmed.

[3] = molecular target: T1, norepinephrine transporter (Homo sapiens, UniProt P23975); assay: Norepinephrine reuptake inhibition in transporter-transfected HEK-293 cells ([3H]-NE); type: cell-based; details: for IC50: concentration at which Ratio % is 50%, 6 concentrations 1 nM to 1 μM, read-out: Triple reuptake inhibition (IC50, μM) NET; for Triple reuptake inhibition (Ratio %) NET: compound 1 μM, [3H]-NE, relative to control without compound (100%), lower = more inhibition
T1 construct: expressed in transfected cells; host or cells: HEK-293
T1 sequence (P23975 whole entry, species assumed): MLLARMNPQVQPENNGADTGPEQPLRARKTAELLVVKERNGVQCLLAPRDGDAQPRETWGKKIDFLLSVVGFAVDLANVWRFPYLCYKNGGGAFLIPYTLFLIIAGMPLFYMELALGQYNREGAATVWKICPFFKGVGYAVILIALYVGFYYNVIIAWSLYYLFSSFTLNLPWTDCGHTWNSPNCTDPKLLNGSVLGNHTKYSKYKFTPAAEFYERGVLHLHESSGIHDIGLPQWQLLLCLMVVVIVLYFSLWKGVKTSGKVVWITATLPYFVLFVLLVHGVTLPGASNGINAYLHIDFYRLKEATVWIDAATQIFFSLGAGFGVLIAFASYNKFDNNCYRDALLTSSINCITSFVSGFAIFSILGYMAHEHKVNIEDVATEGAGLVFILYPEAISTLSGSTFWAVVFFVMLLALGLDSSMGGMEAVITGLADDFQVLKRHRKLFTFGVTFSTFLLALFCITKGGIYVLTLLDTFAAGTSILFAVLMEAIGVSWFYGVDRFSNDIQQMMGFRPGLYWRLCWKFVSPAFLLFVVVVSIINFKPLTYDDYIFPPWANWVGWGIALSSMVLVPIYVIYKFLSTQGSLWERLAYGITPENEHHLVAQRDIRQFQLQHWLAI

serotonin transporter = molecular target: T2, serotonin transporter (Homo sapiens, UniProt P31645); assay: Serotonin reuptake inhibition in transporter-transfected HEK-293 cells ([3H]-5-HT); type: cell-based; details: for IC50: concentration at which Ratio % is 50%, 6 concentrations 1 nM to 1 μM, read-out: Triple reuptake inhibition (IC50, μM) SERT; for Triple reuptake inhibition (Ratio %) SERT: compound 1 μM, [3H]-5-HT, relative to control without compound (100%), lower = more inhibition
T2 construct: expressed in transfected cells; host or cells: HEK-293
T2 sequence (P31645 whole entry): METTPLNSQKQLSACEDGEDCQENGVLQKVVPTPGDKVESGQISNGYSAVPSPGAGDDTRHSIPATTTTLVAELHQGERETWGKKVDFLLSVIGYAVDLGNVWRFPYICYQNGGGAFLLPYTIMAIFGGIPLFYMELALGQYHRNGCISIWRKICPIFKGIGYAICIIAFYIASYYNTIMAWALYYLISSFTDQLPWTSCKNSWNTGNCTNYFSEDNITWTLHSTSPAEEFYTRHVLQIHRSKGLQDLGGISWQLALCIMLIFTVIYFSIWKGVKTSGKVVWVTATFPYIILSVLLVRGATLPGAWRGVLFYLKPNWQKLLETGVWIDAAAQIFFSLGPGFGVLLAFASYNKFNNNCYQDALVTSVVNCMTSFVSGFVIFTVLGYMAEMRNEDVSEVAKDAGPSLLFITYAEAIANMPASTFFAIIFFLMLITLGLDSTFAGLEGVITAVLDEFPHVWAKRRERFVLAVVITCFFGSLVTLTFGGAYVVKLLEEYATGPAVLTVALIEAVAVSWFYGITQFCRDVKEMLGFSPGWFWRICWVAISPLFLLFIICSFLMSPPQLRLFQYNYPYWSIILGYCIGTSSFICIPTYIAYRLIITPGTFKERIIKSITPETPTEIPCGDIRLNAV

dopamine transporter = molecular target: T3, dopamine transporter (Homo sapiens, UniProt Q01959); assay: Dopamine reuptake inhibition in transporter-transfected HEK-293 cells ([3H]-DA); type: cell-based; details: for IC50: concentration at which Ratio % is 50%, 6 concentrations 1 nM to 1 μM, read-out: Triple reuptake inhibition (IC50, μM) DAT; for Triple reuptake inhibition (Ratio %) DAT: compound 1 μM, 20-30 nM [3H]-DA, relative to control without compound (100%), lower = more inhibition
T3 construct: expressed in transfected cells; host or cells: HEK-293
T3 sequence (Q01959 whole entry): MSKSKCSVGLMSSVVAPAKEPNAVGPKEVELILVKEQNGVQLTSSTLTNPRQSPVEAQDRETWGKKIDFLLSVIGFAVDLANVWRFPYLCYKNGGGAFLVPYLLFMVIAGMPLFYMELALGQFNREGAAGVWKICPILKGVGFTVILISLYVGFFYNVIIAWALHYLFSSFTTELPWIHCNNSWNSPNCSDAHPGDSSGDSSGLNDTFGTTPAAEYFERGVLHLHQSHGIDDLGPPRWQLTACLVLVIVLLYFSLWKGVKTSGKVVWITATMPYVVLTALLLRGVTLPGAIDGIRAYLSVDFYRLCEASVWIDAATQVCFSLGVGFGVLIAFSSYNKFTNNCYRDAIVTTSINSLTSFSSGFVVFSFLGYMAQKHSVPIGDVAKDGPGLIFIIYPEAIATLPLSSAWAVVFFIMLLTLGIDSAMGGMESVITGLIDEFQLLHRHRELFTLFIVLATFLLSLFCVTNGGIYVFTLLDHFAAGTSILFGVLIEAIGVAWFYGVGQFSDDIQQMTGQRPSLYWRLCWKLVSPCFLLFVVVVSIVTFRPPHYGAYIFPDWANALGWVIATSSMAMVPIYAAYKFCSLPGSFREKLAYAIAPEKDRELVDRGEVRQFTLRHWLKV
Procedure, shortened: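 HEK-293 cells transfected with human DAT cDNA; compound preincubated 15 min at 37 °C in uptake buffer, then buffer containing 20-30 nM [3H]-DA added for 5 min at 37 °C. After ice-cold washes and SDS lysis, radioactivity expressed as % of untreated control; IC50 from six concentrations (1 nM–1 μM).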

[4] = positive control treated with only MK801 0.15 mg/kg i.p.
[5] = 2 mg/kg intraperitoneally once a day for 5 days
[6] = 5 mg/kg intraperitoneally 30 minutes before MK801 0.15 mg/kg i.p.
[7] = 5 mg/kg intraperitoneally 30 minutes before MK801 0.15 mg/kg i.p., observed 15 minutes, MK801 only about 14000 cm
[8] = 5 mg/kg intraperitoneally 30 minutes before MK801 0.15 mg/kg i.p., MK801 only about 1070 s
[9] = 10 mg/kg intraperitoneally once a day for 5 days

Row | SMILES | IC50 [3] [µM] | IC50 (serotonin transporter) [µM] | IC50 (dopamine transporter) [µM] | Triple reuptake inhibition (Ratio %) NET [3] [%] | Triple reuptake inhibition (Ratio %) SERT (serotonin transporter) [%] | Triple reuptake inhibition (Ratio %) DAT (dopamine transporter) [%] | also measured
1 | C[C@]12N[C@H](Cc3ccccc31)c1ccccc12 [MK801, reference compound] |  |  |  |  |  |  | movement duration (male ICR mice [1]; [4]): about 1070 seconds; distance moved (male ICR mice [1]; [4]): about 14000 cm
2 | CN1C(=O)CN=C(c2ccccc2)c2cc(Cl)ccc21 [diazepam] |  |  |  |  |  |  | sleep onset time (male ICR mice [2]; [5]): about 170 seconds; sleep duration (male ICR mice [2]; [5]): about 2900 seconds
3 | O=C(NCCN1CCC(Cc2ccccc2)CC1)c1cc2ccccc2[nH]1 [Comparative Example 1, N-(2-(4-benzylpiperidin-1-yl)ethyl)-1H-indol-2-carboxamide, reference compound] | 0.524 | 5.35 | 4.18 |  |  |  | hyperactivity of the mice induced with MK801 (male ICR mice [1]; [6]): not inhibited; distance moved (male ICR mice [1]; [7]): about 13400 cm; movement duration (male ICR mice [1]; [8]): about 1100 seconds; sleep disorder as side effect (male ICR mice [2]; [9]): induced sleep disorder; sleep onset time (male ICR mice [2]; [9]): about 300 seconds; sleep duration (male ICR mice [2]; [9]): about 1100 seconds
4 | COc1cc2cc(C(=O)NCCN3CCC(Cc4ccccc4)CC3)[nH]c2cc1OC [Example 35, N-(2-(4-benzylpiperidin-1-yl)ethyl)-5,6-dimethoxy-1H-indol-2-carboxamide] | 0.386 | 0.415 | 0.248 | 16.10 | 36.24 | 7.77 | hyperactivity of the mice induced with MK801 (male ICR mice [1]; [6]): significantly inhibited; distance moved (male ICR mice [1]; [7]): about 10000 cm; movement duration (male ICR mice [1]; [8]): about 950 seconds
5 | Cn1c(C(=O)NCCN2CCC(Cc3ccccc3)CC2)cc2ccccc21 [Example 74, N-(2-(4-benzylpiperidin-1-yl)ethyl)-1-methyl-1H-indol-2-carboxamide] | 0.337 | 3.41 | 0.509 | 28.47 | 67.26 | 39.87 | 
6 | O=C(NCCN1CCN(c2cccc(C(F)(F)F)c2)CC1)c1ccc(Cl)c(Cl)c1 [Example 12, 3,4-dichloro-N-(2-(4-(3-(trifluoromethyl)phenyl)piperazin-1-yl)ethyl)benzamide] |  |  |  | 94.42 | 93.46 | 103.97 | 
7 | CC(CN1CCC(Cc2ccccc2)CC1)NC(=O)c1cc2ccccc2[nH]1 (centres unmarked) [Example 43, N-(1-(4-benzylpiperidin-1-yl)propan-2-yl)-1H-indol-2-carboxamide] |  |  |  | 56.98 | 81.76 | 30.29 | 
8 | O=C(NCCN1CCC(c2ccc(Cl)c(Cl)c2)CC1)c1cc2ccccc2[nH]1 [Example 28, N-(2-(4-(3,4-dichlorophenyl)piperidin-1-yl)ethyl)-1H-indol-2-carb oxamide] |  |  | 0.225 | 88.77 | 82.81 | 37.16 | 
9 | O=C(NCCN1CCC(C(O)c2ccccc2)CC1)c1cc2ccccc2[nH]1 (centres unmarked) [Example 36, N-(2-(4-(hydroxy(phenyl)methyl)piperidin-1-yl)ethyl)-1H-indol-2-carboxamide] |  |  |  | 90.99 | 111.92 | 84.74 | 
10 | O=C(NCCN1CCC(Cc2ccccc2)CC1)C1Cc2ccccc2N1 (centres unmarked) [Example 57, N-(2-(4-benzylpiperidin-1-yl)ethyl) indolin-2-carboxamide] |  |  |  | 124.77 | 77.95 | 60.52 | 
11 | O=C(NCCN1CCC(Cc2ccccc2)CC1)c1cc2cc(O)ccc2[nH]1 [Example 66, N-(2-(4-benzylpiperidin-1-yl)ethyl)-5-hydroxy-1H-Indol-2-carboxamide] | 0.167 | 0.265 | 0.036 | 21.59 | 38.79 | 8.78 | hyperactivity of the mice induced with MK801 (male ICR mice [1]; [6]): significantly inhibited; distance moved (male ICR mice [1]; [7]): about 8600 cm; movement duration (male ICR mice [1]; [8]): about 880 seconds
12 | Cc1c(C(=O)NCCN2CCC(Cc3ccccc3)CC2)[nH]c2ccccc12 [Example 20, N-(2-(4-benzylpiperidin-1-yl)ethyl)-3-methyl-1H-indol-2-carboxamide] |  |  | 1.37 | 85.70 | 83.11 | 43.53 | 
13 | O=C(NCCN1CCC(Cc2ccccc2)CC1)c1cc2cc(Br)ccc2[nH]1 [Example 30, N-(2-(4-benzylpiperidin-1-yl)ethyl)-5-bromo-1H-indol-2-carboxamide] | 7.91 |  | 0.984 | 94.09 | 75.29 | 49.44 | 
